Drawing on patent US9850247B2 (Almac Discovery Limited, priority 2013, dated 2017), this text covers IC50 and microsomal CLint for ten compounds.

Molecules are shown by their SMILES. Bounds are passed on as bounds.

One series addresses T1, Wee-1 kinase (Homo sapiens, UniProt P30291).
T1 construct: purchased Invitrogen PV3817
The series can be described thus: Measurement of Wee-1 kinase activity (ADP-Glo luminescent kit). Type of series: biochemical. The essentials:
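ADP-Glo luminescence reads ADP made over 1 h at RT, after an aliquot of 30 μM ATP and 2.0 μg/mL poly(Lys,Tyr 4:1) substrate. Before that, the kinase sat 30 min with inhibitor in Tris-HCl/MgCl2 buffer with BSA and DTT. IC50 came from regression of percent inhibition.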
(In ADP-Glo the light output rises with the ADP produced.)

Series [1] is described as follows: CLint estimates using human liver microsomes (Method 4). Type of series: in vitro ADME. The conditions noted are these: pH 7.4, 1 μM compound, read-out: Mics - CLint (HLM CLint). The method, then: Method 4: Determination of CLint Estimates Using Human liver microsomes Test compounds (final concentration=1 μM; final DMSO concentration=0.1%) were incubated in 0.1 M phosphate buffer pH 7.4 with human liver microsomes (0.5 mg of protein/mL) at 37° C. Reactions were started by addition of NADPH in 0.1 M phosphate buffer pH 7.4 (final concentration 1 mM). 40 μL aliquots were removed at 2, 5, 10, 15, 20, 30, 40 and 50 min. Reactions were quenched in 80 μL of ice-cold methanol. Samples were subsequently frozen overnight then centrifuged at 3500 rpm for 20 min at 4° C. The supernatants were removed and transferred into analytical plates and analysed by LC/MS/MS. LC/MS/MS Method: All samples were analysed on a Waters Acquity I-Class coupled to a Waters Xevo TQD mass spectrometer. A Waters BEH C18 2.1×50 mm 1.7 μm column was used and mobile phases were water and methanol containing 0.1% formic acid as modifier. Analysis was by multiple reaction monitoring and conditions were optimised for each test compound. Data Analyses: From a plot of 1n peak area against time, the gradient of the line is determined. Subsequently, half-life and intrinsic clearance are calculated using the following equations. [formula] [formula] [formula] where V=Incubation volume (μL)/number of cells Method 5: Determination of Kinetic Solubility (in PBS Buffer)

T1 sequence (P30291 whole entry): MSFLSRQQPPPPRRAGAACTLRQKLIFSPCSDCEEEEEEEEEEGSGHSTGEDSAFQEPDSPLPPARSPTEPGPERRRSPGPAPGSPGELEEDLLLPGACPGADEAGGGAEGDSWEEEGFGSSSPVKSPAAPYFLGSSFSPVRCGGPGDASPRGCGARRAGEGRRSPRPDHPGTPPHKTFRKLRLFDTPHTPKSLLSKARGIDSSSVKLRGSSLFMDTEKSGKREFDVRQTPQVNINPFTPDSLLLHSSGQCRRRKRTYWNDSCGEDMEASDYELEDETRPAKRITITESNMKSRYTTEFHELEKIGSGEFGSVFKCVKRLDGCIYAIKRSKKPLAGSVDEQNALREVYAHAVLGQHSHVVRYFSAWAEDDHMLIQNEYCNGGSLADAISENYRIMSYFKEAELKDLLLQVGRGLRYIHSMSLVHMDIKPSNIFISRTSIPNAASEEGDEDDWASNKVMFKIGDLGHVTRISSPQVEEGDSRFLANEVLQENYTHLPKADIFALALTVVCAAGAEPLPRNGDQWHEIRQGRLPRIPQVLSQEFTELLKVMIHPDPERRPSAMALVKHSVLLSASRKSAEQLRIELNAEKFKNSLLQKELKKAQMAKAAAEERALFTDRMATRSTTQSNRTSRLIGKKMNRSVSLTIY

Turning to `C[C@@H]1CN(c2ccc(Nc3ncc4c(n3)N(C)CN(c3c(Cl)cccc3Cl)C4=O)cc2OC(F)F)CCN1` [Example 132, (R)-3-(2,6-dichlorophenyl)-7-((3-(difluoromethoxy)-4-(3-methylpiperazin-1-yl)phenyl)amino)-1-methyl-2,3-dihydropyrimido[4,5-d]pyrimidin-4(1H)-one], the IC50 on Wee-1 kinase is 10 to 100 nM. In addition, the microsomal CLint at 1 μM in series [1] was not above 15 µL/min/mg.

Consider `CN1CCC(Nc2cccc(Nc3ncc4c(n3)N(C)CN(c3c(Cl)cccc3Cl)C4=O)c2)CC1` [Example 91, 3-(2,6-dichlorophenyl)-1-methyl-7-((3-((1-methylpiperidin-4-yl)amino)phenyl)amino)-2,3-dihydropyrimido[4,5-d]pyrimidin-4(1H)-one], for which the IC50 on Wee-1 kinase lay in the range of 10 to 100 nM. Further, the microsomal CLint at 1 μM in series [1] is not above 15 µL/min/mg.

As for `Cc1cc(Nc2ncc3c(n2)N(C)CN(c2c(Cl)cccc2Cl)C3=O)ccc1N1C[C@H]2C[C@@H]1CN2C` [Example 121, 3-(2,6-dichlorophenyl)-1-methyl-7-((3-methyl-4-((1R,4R)-5-methyl-2,5-diazabicyclo[2.2.1]heptan-2-yl)phenyl)amino)-2,3-dihydropyrimido[4,5-d]pyrimidin-4(1H)-one], the IC50 at Wee-1 kinase lay within 10 to 100 nM. Also, in series [1], the microsomal CLint at 1 μM was 15 to 50 µL/min/mg.

`CN1CN(c2c(Cl)cccc2Cl)C(=O)c2cnc(Nc3ccc(N4CCOCC4)cc3)nc21` [Example 41, 3-(2,6-dichlorophenyl)-1-methyl-7-((4-morpholinophenyl)amino)-2,3-dihydropyrimido[4,5-d]pyrimidin-4(1H)-one]: the IC50 on Wee-1 kinase fell in the range of 10 to 100 nM. The microsomal CLint at 1 μM in series [1] was 15 to 50 µL/min/mg.

On to `CN1CN(c2c(Cl)cccc2Cl)C(=O)c2cnc(Nc3ccc(C4CCNCC4)cc3)nc21` [Example 119, 3-(2,6-dichlorophenyl)-1-methyl-7-((4-(piperidin-4-yl)phenyl)amino)-2,3-dihydropyrimido[4,5-d]pyrimidin-4(1H)-one], for which the half-maximal inhibitory concentration (IC50) at Wee-1 kinase was 10 to 100 nM. Also, the microsomal CLint at 1 μM in series [1] is not above 15 µL/min/mg.

As for `CN1CN(c2c(Cl)cccc2Cl)C(=O)c2cnc(Nc3ccc(N4C[C@@H]5C[C@H]4CN5C)cc3)nc21` [Example 44, 3-(2,6-dichlorophenyl)-1-methyl-7-((4-((1S,4S)-5-methyl-2,5-diazabicyclo[2.2.1]heptan-2-yl)phenyl)amino)-2,3-dihydropyrimido[4,5-d]pyrimidin-4(1H)-one], on Wee-1 kinase, the IC50 was 10 to 100 nM. Moreover, in series [1], the microsomal CLint at 1 μM was not above 15 µL/min/mg.

`COCc1cc(Nc2ncc3c(n2)N(C)CN(c2c(Cl)cccc2Cl)C3=O)ccc1N1CCN(C)[C@H](C)C1` [Example 67, (R)-3-(2,6-dichlorophenyl)-7-((4-(3,4-dimethylpiperazin-1-yl)-3-(methoxymethyl)phenyl)amino)-1-methyl-2,3-dihydropyrimido[4,5-d]pyrimidin-4(1H)-one]: the IC50 at Wee-1 kinase is 10 to 100 nM. Besides, in series [1], the microsomal CLint at 1 μM is not above 15 µL/min/mg.

Regarding `COCCN1CCN(c2ccc(Nc3ncc4c(n3)N(C)CN(c3c(Cl)cccc3Cl)C4=O)cc2)CC1` [Example 120, 3-(2,6-dichlorophenyl)-7-((4-(4-(2-methoxyethyl)piperazin-1-yl)phenyl)amino)-1-methyl-2,3-dihydropyrimido[4,5-d]pyrimidin-4(1H)-one], the IC50 on Wee-1 kinase is not below 100 nM. Besides, the microsomal CLint at 1 μM in series [1] is 15 to 50 µL/min/mg.

Regarding `Cc1cc(Nc2ncc3c(n2)N(C)CN(c2ccccc2Cl)C3=O)ccc1N1C[C@@H]2C[C@H]1CN2` [Example 109, 7-((4-((1S,4S)-2,5-diazabicyclo[2.2.1]heptan-2-yl)-3-methylphenyl)amino)-3-(2-chlorophenyl)-1-methyl-2,3-dihydropyrimido[4,5-d]pyrimidin-4(1H)-one], the IC50 at Wee-1 kinase is 10 to 100 nM. Besides, the microsomal CLint at 1 μM in series [1] is not above 15 µL/min/mg.

In the case of `COC[C@H]1CNCCN1c1ccc(Nc2ncc3c(n2)N(C)CN(c2c(Cl)cccc2Cl)C3=O)cc1` [Example 129, (R)-3-(2,6-dichlorophenyl)-7-((4-(2-(methoxymethyl)piperazin-1-yl)phenyl)amino)-1-methyl-2,3-dihydropyrimido[4,5-d]pyrimidin-4(1H)-one], the IC50 on Wee-1 kinase is not above 10 nM. The microsomal CLint at 1 μM in series [1] was not above 15 µL/min/mg.

As a reminder, the IC50 is the midpoint of a concentration-inhibition curve.
